{
  "source": "patent US20170368135A1",
  "about": "“HERBAL DRUG COMPOSITION CONTAINING PROBIOTIC AND OPTIONALLY PREBIOTIC AND/OR ACTIVE PHARMACEUTICAL INGREDIENT” (VITALIVA, LLC, priority 2016, published 2017)",
  "origin": "cited, not measured here",
  "key": {"alcoholic liver disease": {"system": "alcoholic liver disease", "conditions": "in vivo"}},
  "data": [
    {"compound": "COc1cc(/C=C/C(=O)CC(=O)/C=C/c2ccc(O)c(OC)c2)ccc1O", "note": "[Curcumin]", "values": [
      {"measurement": "endotoxin-mediated activation of NF-κB", "setting": "NF-κB in Kupffer cells", "result": "phsyciological changes induced by alcohol. Curcumin blocks"},
      {"measurement": "expression of cytokines, chemokines, COX-2, and iNOS", "setting": "NF-κB in Kupffer cells; Kupffer cells", "result": "endotoxin-mediated activation of NF-κB and suppresses the expression"},
      {"measurement": "physiological changes induced by alcohol", "setting": "alcoholic liver disease", "result": "dietary spice turmeric, shows that curcimin administration prevented"}
    ]}
  ]
}
